In brackets after ≈: the same amount, converted by molar mass.
What was measured:
60 cancer cell lines = assay: NCI-60 one-dose screen (10 μM); type: cell-based; conditions: Homo sapiens; one dose of 10 μM, mean over 60 cancer cell lines; read-out: Mean Growth Percent (MGP)
From the text: Additionally, the mean of the growth percentages (MGP) of each compound against all the 60 cancer cell lines is also reported, which is used as one of the selection criteria to continue with tests at five concentration doses.

[1] = Hemolytic activity, spectrophotometric; type: cell-based, human; conditions: human, human red blood cells (huRBC), 5% hematocrit, 200 μg/mL, 37 °C
[2] = system: N. gonorrhoeae ATCC 49226; assay: MIC on GC agar plates; type: cell-based, Neisseria gonorrhoeae; conditions: Neisseria gonorrhoeae, ATCC49226, read-out: MIC
Method: An initial screening for bacterial inhibition was performed by the agar diffusion method. […] DMSO and TSB were included as negative controls. Gentamicin and trimethoprim sulfamethoxazole were included as a positive control for growth inhibition. Derivatives showing growth inhibition were tested at least twice before being selected for the microdilution test. For N. gonorrhoeae, the agar diffusion method was also used for screening with some modifications. […] Penicillin and tetracycline were used as controls. […] Briefly, GC agar supplemented with 1% isovitalex was prepared with increasing concentrations of the new compounds and inoculated with 10 µL of a bacterial suspension (1 × 10^4 CFU). The lowest concentration of the compound that inhibited bacterial growth was determined as the MIC. Bacterial growth was examined and verified using the oxidase test. The experiments were performed in duplicate in at least two independent assays.

[3] = system: M. tuberculosis ATCC 27294; assay: Antitubercular broth microdilution MIC; type: cell-based; conditions: Mycobacterium tuberculosis; M. tuberculosis ATCC 27294 (H37Rv); read-out: Minimum inhibitory concentration (MIC)
[4] = system: Candida albicans (ATCC 10231); assay: Antifungal broth microdilution (CLSI); type: cell-based; conditions: ATCC10231; Ca: Candida albicans
Method: Several of the obtained triazine derivatives were evaluated against sensitive fungal species comprising of two yeasts (Candida albicans (ATCC 10231), Cryptococcus neoformans (ATCC 32264)), three dermatophytes (Microsporum gypseum (CCC 115), Trichophyton rubrum (CCC 134-2000), Trichophyton mentagrophytes (CCC 202-2000)), and three Aspergillus fungi ((A. [NT] 26934), A. niger (ATCC 9029), and A. flavus (ATCC 9170)). […] Broth microdilution techniques were performed in 96-well microplates according to the Reference Method for Broth Dilution Antifungal Susceptibility Testing of Yeasts, document M27-A3 [86] and of Filamentous Fungi […]-A8 [87]. […] An inoculum suspension (100 μL) was added to each well (final well volume = 200 μL). One growth control well (containing medium, inoculum, and the same amount of DMSO as used for each compound) and one sterility control well (sample, medium, and sterile water instead of inoculum) were included for each fungus tested. Microtiter plates were incubated in a dark, humid chamber at 30 °C for the time necessary for each fungus. Amphotericin B, Terbinafine, Fluconazole and Itraconazole were used as a positive control. The tests were performed in triplicate.

## COc1ccc(C(=O)/C=C/c2ccc(Oc3nc(Nc4ccc(F)cc4)nc(N(C)C)n3)c(OC)c2)cc1 [21c]
60 cancer cell lines
  activity at 10 µM: 48.4%

## COc1ccc(C(=O)/C=C/c2ccc(Oc3nc(NCCO)nc(N4CCOCC4)n3)c(OC)c2)cc1 [20c]
60 cancer cell lines
  activity at 10 µM: 72%

## CN(C)c1nc(NCCNS(=O)(=O)c2ccc(C3=Nc4c(N)nc(N)nc4NC(c4ccc(Cl)cc4)C3)cc2)nc(N2CCOCC2)n1 (centres unmarked) [30e]
60 cancer cell lines
  activity at 10 µM: 48.9%
[1]
  hemolysis at 24 h, 200 µg/mL: 2.7%

## COc1cc(C2CC(c3ccccc3)=Nc3c(N)nc(N)nc3N2)ccc1Oc1nc(Nc2ccc(F)cc2)nc(N(C)C)n1 (centres unmarked) [29a]
60 cancer cell lines
  activity at 10 µM: 40.2%
[2]
  MIC: 2 µg/mL (≈ 3.29 µM)
[3]
  MIC: 5 µg/mL (≈ 8.23 µM)
[1]
  hemolysis at 24 h, 200 µg/mL: 3%

## COc1ccc(C2CC(c3ccc(S(=O)(=O)NCCNc4nc(Nc5ccc(F)cc5)nc(N(C)C)n4)cc3)=Nc3c(N)nc(N)nc3N2)cc1 (centres unmarked) [31c]
60 cancer cell lines
  activity at 10 µM: 75.8%
[2]
  MIC: 8 µg/mL (≈ 11.2 µM)
[3]
  MIC: 1.2 µg/mL (≈ 1.68 µM)
[1]
  hemolysis at 24 h, 200 µg/mL: 1.2%

## COc1cc(C2CC(c3cc(OC)c(OC)c(OC)c3)=Nc3c(N)nc(N)nc3N2)ccc1Oc1nc(NCCO)nc(N2CCOCC2)n1 (centres unmarked) [28d]
60 cancer cell lines
  activity at 10 µM: 98.9%
[2]
  MIC: 2 µg/mL (≈ 2.9 µM)
[1]
  hemolysis at 24 h, 200 µg/mL: 1%

## COc1cc(/C=C/C(=O)c2ccc(F)cc2)ccc1Oc1nc(NCCO)nc(N2CCOCC2)n1 [20f]
60 cancer cell lines
  activity at 10 µM: 72.4%

## COc1cc(C2CC(c3ccc(Nc4nc(NCCO)nc(N5CCOCC5)n4)cc3)=Nc3c(N)nc(N)nc3N2)cc(OC)c1OC (centres unmarked) [32d]
60 cancer cell lines
  activity at 10 µM: 99.5%
[2]
  MIC: 500 µg/mL (≈ 759 µM)

## COc1ccc(C2=Nc3c(N)nc(N)nc3NC(c3ccc(Oc4nc(NCCO)nc(N5CCOCC5)n4)c(OC)c3)C2)cc1 (centres unmarked) [28c]
60 cancer cell lines
  activity at 10 µM: 102%
[2]
  MIC: 0.5 µg/mL (≈ 0.794 µM)
[1]
  hemolysis at 24 h, 200 µg/mL: 7%

## COc1cc(/C=C/C(=O)c2ccc(F)cc2)ccc1Oc1nc(Nc2ccc(F)cc2)nc(N(C)C)n1 [21f]
60 cancer cell lines
  activity at 10 µM: 56%
[2]
  MIC: 500 µg/mL (≈ 993 µM)
[1]
  hemolysis at 24 h, 200 µg/mL: 0.8%

## COc1ccc(/C=C/C(=O)c2ccc(S(=O)(=O)NCCNc3nc(N(C)C)nc(N4CCOCC4)n3)cc2)cc1 [23c]
60 cancer cell lines
  activity at 10 µM: 81.5%
[1]
  hemolysis at 24 h, 200 µg/mL: 0%

## NNC(=O)c1ccncc1 [Isoniazid, reference compound]
[3]
  MIC: 0.1 µg/mL (≈ 0.729 µM)

## COc1cc(C2CC(c3ccc(C)cc3)=Nc3c(N)nc(N)nc3N2)ccc1Oc1nc(NCCO)nc(N2CCOCC2)n1 (centres unmarked) [28b]
60 cancer cell lines
  activity at 10 µM: 89.7%
[2]
  MIC: 4 µg/mL (≈ 6.52 µM)
[1]
  hemolysis at 24 h, 200 µg/mL: 5%

## COc1cc(C2CC(c3ccc(S(=O)(=O)NCCNc4nc(Nc5ccc(F)cc5)nc(N(C)C)n4)cc3)=Nc3c(N)nc(N)nc3N2)cc(OC)c1OC (centres unmarked) [31d]
60 cancer cell lines
  activity at 10 µM: 79.6%
[2]
  MIC: 500 µg/mL (≈ 646 µM)
[3]
  MIC: 5 µg/mL (≈ 6.46 µM)
[1]
  hemolysis at 24 h, 200 µg/mL: 0.6%

## Cc1ccc(C2CC(c3ccc(S(=O)(=O)NCCNc4nc(N(C)C)nc(N5CCOCC5)n4)cc3)=Nc3c(N)nc(N)nc3N2)cc1 (centres unmarked) [30b]
60 cancer cell lines
  activity at 10 µM: 49.9%
[1]
  hemolysis at 24 h, 200 µg/mL: 0.2%

## COc1cc(/C=C/C(=O)c2ccc(Cl)cc2)ccc1Oc1nc(Nc2ccc(F)cc2)nc(N(C)C)n1 [21e]
60 cancer cell lines
  activity at 10 µM: 73.1%

## COc1cc(C2CC(c3ccccc3)=Nc3c(N)nc(N)nc3N2)ccc1Oc1nc(NCCO)nc(N2CCOCC2)n1 (centres unmarked) [28a]
60 cancer cell lines
  activity at 10 µM: 98.8%
[2]
  MIC: 4 µg/mL (≈ 6.67 µM)
[1]
  hemolysis at 24 h, 200 µg/mL: 3%

## Cc1ccc(C2CC(c3ccc(Nc4nc(NCCO)nc(N5CCOCC5)n4)cc3)=Nc3c(N)nc(N)nc3N2)cc1 (centres unmarked) [32b]
60 cancer cell lines
  activity at 10 µM: 84.5%
[2]
  MIC: 4 µg/mL (≈ 6.86 µM)
[1]
  hemolysis at 24 h, 200 µg/mL: 1%

## Cc1ccc(/C=C/C(=O)c2ccc(S(=O)(=O)NCCNc3nc(N(C)C)nc(N4CCOCC4)n3)cc2)cc1 [23b]
60 cancer cell lines
  activity at 10 µM: 72.3%
[1]
  hemolysis at 24 h, 200 µg/mL: 1.8%

## CC(=O)c1ccc(S(=O)(=O)NCCNc2nc(Nc3ccc(F)cc3)nc(N(C)C)n2)cc1 [compound 18]
60 cancer cell lines
  activity at 10 µM: 104%

## COc1cc(C2CC(c3ccc(Nc4nc(NCCO)nc(Nc5ccc(Cl)cc5)n4)cc3)=Nc3c(N)nc(N)nc3N2)cc(OC)c1OC (centres unmarked) [33d]
60 cancer cell lines
  activity at 10 µM: 65.3%

## COc1cc(/C=C/C(=O)c2ccc(C(F)(F)F)cc2)ccc1Oc1nc(Nc2ccc(F)cc2)nc(N(C)C)n1 [21g]
60 cancer cell lines
  activity at 10 µM: 73.2%

## CCC(C)n1ncn(-c2ccc(N3CCN(c4ccc(OCC5COC(Cn6cncn6)(c6ccc(Cl)cc6Cl)O5)cc4)CC3)cc2)c1=O (centres unmarked) [Itraconazole, reference compound]
[4]
  MIC: 0.5 µg/mL (≈ 0.709 µM)

## COc1cc(/C=C/C(=O)c2ccc(Cl)cc2)ccc1Oc1nc(NCCO)nc(N2CCOCC2)n1 [20e]
60 cancer cell lines
  activity at 10 µM: 94.7%

## COc1ccc(C2CC(c3ccc(Nc4nc(NCCO)nc(Nc5ccc(Cl)cc5)n4)cc3)=Nc3c(N)nc(N)nc3N2)cc1 (centres unmarked) [33c]
60 cancer cell lines
  activity at 10 µM: 63.3%
[2]
  MIC: 2 µg/mL (≈ 3.13 µM)
[1]
  hemolysis at 24 h, 200 µg/mL: 5%

## COc1ccc(C2CC(c3ccc(Nc4nc(NCCO)nc(N5CCOCC5)n4)cc3)=Nc3c(N)nc(N)nc3N2)cc1 (centres unmarked) [32c]
60 cancer cell lines
  activity at 10 µM: 101%

## COc1cc(C2CC(c3ccc(Cl)cc3)=Nc3c(N)nc(N)nc3N2)ccc1Oc1nc(NCCO)nc(N2CCOCC2)n1 (centres unmarked) [28e]
60 cancer cell lines
  activity at 10 µM: 70.2%
[2]
  MIC: 8 µg/mL (≈ 12.6 µM)
[1]
  hemolysis at 24 h, 200 µg/mL: 5%

## Nc1nc(N)c2c(n1)NC(c1ccccc1)CC(c1ccc(Nc3nc(NCCO)nc(N4CCOCC4)n3)cc1)=N2 (centres unmarked) [32a]
60 cancer cell lines
  activity at 10 µM: 87.2%
[2]
  MIC: 8 µg/mL (≈ 14.1 µM)
[1]
  hemolysis at 24 h, 200 µg/mL: 2%

## CN(C)c1nc(NCCNS(=O)(=O)c2ccc(C3=Nc4c(N)nc(N)nc4NC(c4ccc(F)cc4)C3)cc2)nc(N2CCOCC2)n1 (centres unmarked) [30f]
60 cancer cell lines
  activity at 10 µM: 72.8%

## COc1cc(C=O)ccc1Oc1nc(NCCO)nc(N2CCOCC2)n1 [compound 14]
60 cancer cell lines
  activity at 10 µM: 102%

## COc1ccc(C2CC(c3ccc(S(=O)(=O)NCCNc4nc(N(C)C)nc(N5CCOCC5)n4)cc3)=Nc3c(N)nc(N)nc3N2)cc1 (centres unmarked) [30c]
60 cancer cell lines
  activity at 10 µM: 84.3%

## Nc1nc(N)c2c(n1)NC(c1ccc(F)cc1)CC(c1ccc(Nc3nc(NCCO)nc(N4CCOCC4)n3)cc1)=N2 (centres unmarked) [32f]
60 cancer cell lines
  activity at 10 µM: 89.1%
[2]
  MIC: 2 µg/mL (≈ 3.41 µM)
[1]
  hemolysis at 24 h, 200 µg/mL: 5%

## COc1cc(C2CC(c3ccc(F)cc3)=Nc3c(N)nc(N)nc3N2)ccc1Oc1nc(NCCO)nc(N2CCOCC2)n1 (centres unmarked) [28f]
60 cancer cell lines
  activity at 10 µM: 98.2%
[2]
  MIC: 8 µg/mL (≈ 13 µM)
[1]
  hemolysis at 24 h, 200 µg/mL: 2%

## COc1cc(/C=C/C(=O)c2ccccc2)ccc1Oc1nc(NCCO)nc(N2CCOCC2)n1 [20a]
60 cancer cell lines
  activity at 10 µM: 92.1%

## COc1cc(/C=C/C(=O)c2ccc(C(F)(F)F)cc2)ccc1Oc1nc(NCCO)nc(N2CCOCC2)n1 [20g]
60 cancer cell lines
  activity at 10 µM: 77.7%

## COc1cc(C=O)ccc1Oc1nc(Nc2ccc(F)cc2)nc(N(C)C)n1 [compound 15]
60 cancer cell lines
  activity at 10 µM: 64.5%
[2]
  MIC: ≥ 500 µg/mL

## Nc1nc(N)c2c(n1)NC(c1ccc(Cl)cc1)CC(c1ccc(Nc3nc(NCCO)nc(N4CCOCC4)n3)cc1)=N2 (centres unmarked) [32e]
60 cancer cell lines
  activity at 10 µM: 74%
[2]
  MIC: 1000 µg/mL (≈ 1660 µM)

## COc1cc(C2CC(c3ccc(C)cc3)=Nc3c(N)nc(N)nc3N2)ccc1Oc1nc(Nc2ccc(F)cc2)nc(N(C)C)n1 (centres unmarked) [29b]
60 cancer cell lines
  activity at 10 µM: 51.3%
[2]
  MIC: ≥ 500 µg/mL
[3]
  MIC: 0.6 µg/mL (≈ 0.965 µM)

## CN(C)c1nc(NCCNS(=O)(=O)c2ccc(C3=Nc4c(N)nc(N)nc4NC(c4ccccc4)C3)cc2)nc(N2CCOCC2)n1 (centres unmarked) [30a]
60 cancer cell lines
  activity at 10 µM: 85.4%
[1]
  hemolysis at 24 h, 200 µg/mL: 0.6%

## Nc1nc(N)c2c(n1)NC(c1ccc(C(F)(F)F)cc1)CC(c1ccc(Nc3nc(NCCO)nc(N4CCOCC4)n3)cc1)=N2 (centres unmarked) [32g]
60 cancer cell lines
  activity at 10 µM: 64.8%
[2]
  MIC: 4 µg/mL (≈ 6.28 µM)
[1]
  hemolysis at 24 h, 200 µg/mL: 2%
